Measurements published in patent US12624068B2, “Exon skipping by peptide nucleic acid derivatives” (OliPass Corporation, priority 2016, dated 2026).
[C(1O2)] = modified PNA monomer acting as cytosine, C(pOq) type, 1O2; [A(5)] = modified PNA monomer acting as adenine, A(p) type, p=5; [G(5)] = modified PNA monomer acting as guanine, G(p) type, p=5; {Fethoc} = N-terminal Fethoc cap; {NH2} = C-terminal amide

Assays:
mdx mice = test: Unscheduled death, sacrifice or lymphoma in chronically treated mdx mice; type: in vivo, mouse
Description: [Grouping & ASO Treatment] Male mdx mice (7 weeks old) were randomly assigned to 4 groups of 0 (mdx negative control), 10, 50, and 200 pmole/Kg “DMD-ASO 1” based on individual grip strength scores by grip test. (N=12 per group) A satellite group of 12 male C57BL/6 mice (7 weeks old) was included in this study as the wild type negative control group for the full-length dystrophin expression level.
The 50 and 200 pmole/Kg group subcutaneously received “DMD-ASO 1” as dissolved in PBS, 2× per week until the final sacrifice in Week 43. In the meantime, the 10 pmole/Kg group subcutaneously received “DMD-ASO 1” initially 2× per week during Week 0 to 8, and 3× per week afterwards to increase the ASO exposure.
[Miscellaneous Findings] There were three cases of unscheduled sacrifice or death (Weeks 26, 39 and 43) in the mdx negative control group due to a large mass of muscular lymphoma developed most likely by chronic muscular inflammation.
“DMD-ASO 1”, “DMD-ASO 2” and “DMD-ASO 6” were evaluated for their physiological effects in male mdx mice by long term subcutaneous administration. In this evaluation the animals were not subjected to physical tests requiring muscular stress in order to keep the transcription of the dystrophin gene undisturbed by excessive muscular stimulation.
[Animals & Grouping] Male mdx mice (6 weeks old) were randomly assigned to 4 groups of the mdx negative control (no ASO treatment), “DMD-ASO 1” 50 pmole/Kg, “DMD-ASO 2” […], and “DMD-ASO 6” […] based on the body weight. (N=12-13 per group) 12 male C57BL/6 mice (6 weeks old) were adopted as the wild type (WT) negative control group.
[Injection Solutions & ASO Treatment] Aqueous mother stock solutions of the ASOs were serially diluted in PBS to prepare the injection solutions of 25 nM “DMD-ASO 1” for 50 pmole/Kg “DMD-ASO 1”, 5 nM “DMD-ASO 2” for “DMD-ASO 2” 10 pmole/Kg, and 5 nM “DMD-ASO 6” for “DMD-ASO 6” 10 pmole/Kg. The animals were subcutaneously administered with the injection solutions at 2 mL/Kg, 2× per week.

[1] = tested on: sodium ion current in rat DRG cells; test: CoroNa assay of sodium current in rat L5 DRG neuronal cells; type: cell-based; conditions: rat L5 DRG cells without L5/L6 ligation, 30 hrs
Procedure: “SCN-ASO 27” was evaluated for its ability to inhibit the sodium ion current in rat DRG (dorsal root ganglion) cells using “CoroNa Green” as follows.
[SNL Surgery by L5/L6 Ligation] In Day 0, 6 weeks old male SD rats were anesthetized with zoletil/rompun. Then the L5 and L6 spinal nerve (left side) were exposed and tightly ligated. The muscle and skin were closed and clipped by due aseptic procedures. The rats were sporadically sensitized by von Frey scoring over a period of 4 weeks.
[Preparation of DRG Neuronal Cells] In Day 31, a rat showing a low von Frey score was sacrificed to extract both the left (ligated side) and the right (non-ligated side) DRG. […]
[ASO Treatment & CoroNa Assay] […] The culture dish was mounted on a fluorescence microscope equipped with a CCD camera to continuously capture the green fluorescent images of the cells. The cells were acutely treated with 10 mM NaCl, and then the changes in the cellular fluorescent intensity were digitally recorded over a period of 300 sec. […] The fluorescence intensities from each individual cell were traced at a resolution of a second. The traces of the intracellular fluorescence intensities from individual cells were averaged using ImageJ program (version 1.50i, NIH), and the average traces are provided in FIGS. 33A and 33B for the cells with “L5/L6 ligation” and without “L5/L6 ligation”, respectively. […]

| Substance | premature deaths (unscheduled death or sacrifice) (mdx mice; DMD-ASO 1 50 pmole/Kg, DMD-ASO 2 or DMD-ASO 6 10 pmole/Kg, subcutaneous 2× per week, 66 weeks) | cases of muscular lymphoma (mdx mice; chronic 10, 50 or 200 pmole/Kg up to Week 43) | decrease in fluorescence intensity (CoroNa) ([1]; 1 aM) [%] | decrease in fluorescence intensity (CoroNa) ([1]; 100 zM) |
| --- | --- | --- | --- | --- |
| Fethoc-A(5)GA-G(6)CC(1O2)-TCA-A(5)AA(5)-T-NH2 (antisense AGAGCCTCAAAAT; Fethoc N-cap, C-terminal amide, chemistry not fully specified) [DMD-ASO 1] | two premature deaths | no cases of lymphoma | – | – |
| Fethoc-AA(5)G-TG(5)T-A(5)CC(1O2)-TA(5)A-A(5)C-NH2 (AAGTGTACCTAAAC; splice-switching; all peptide nucleic acid (PNA), [A(5)] at 2, 7, 11, 13, [G(5)] at 5, [C(1O2)] at 9, 5' {Fethoc}, 3' {NH2}; peptide nucleic acid written N to C) [SCN-ASO 27] | – | – | ~50 | no decrease |
